The source of these data is article PMC7145991, “Biochemical Functions of Glutathione S-Transferase Family of Salix babylonica” (Frontiers in Plant Science, 2020).

What all share (assay): spectrophotometric GSH-CDNB conjugation, nonlinear regression
Common to all, as to type: biochemical
Conditions in all cases: GSH fixed 1.0 mM; 50 mM potassium phosphate pH 6.5; 25 °C; read-out: K mCDNB /

One assay addresses T1, SbGSTU13 (Salix babylonica, UniProt A0A4Y5R0L5).
T1 construct: gene GSTU13; full length, 6xHis-tag (pET30a), E. coli BL21 (DE3), Ni-Sepharose
T1 sequence (A0A4Y5R0L5 1-222): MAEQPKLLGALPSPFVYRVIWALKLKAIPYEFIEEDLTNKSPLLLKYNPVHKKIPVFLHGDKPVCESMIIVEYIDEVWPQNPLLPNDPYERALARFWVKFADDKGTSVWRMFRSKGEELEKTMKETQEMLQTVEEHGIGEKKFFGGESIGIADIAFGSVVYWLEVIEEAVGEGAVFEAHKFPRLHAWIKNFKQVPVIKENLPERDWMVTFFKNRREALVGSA
The text has this: spectrophotometric GSH-CDNB conjugation, nonlinear regression on SbGSTU13

In another assay the target is T2, SbGSTU10 (Salix babylonica, UniProt A0A4Y5QZX3).
T2 construct: gene GSTU10; full length, 6xHis-tag (pET30a), E. coli BL21 (DE3), Ni-Sepharose
The text has this: spectrophotometric GSH-CDNB conjugation, nonlinear regression on SbGSTU10

Another assay has as its target T3, SbGSTU1 (Salix babylonica, UniProt A0A4Y5R2M7).
T3 construct: gene GSTU1; full length, 6xHis-tag (pET30a), E. coli BL21 (DE3), Ni-Sepharose
The source says:
spectrophotometric GSH-CDNB conjugation, nonlinear regression on SbGSTU1

A further assay concerns the target T4, SbGSTU12 (Salix babylonica, UniProt A0A4Y5R0C1).
T4 construct: gene GSTU12; full length, 6xHis-tag (pET30a), E. coli BL21 (DE3), Ni-Sepharose
The source says:
spectrophotometric GSH-CDNB conjugation, nonlinear regression on SbGSTU12

Another assay concerns the target T5, SbGSTU3 (Salix babylonica, UniProt A0A4Y5R0K8).
T5 construct: gene GSTU3; full length, 6xHis-tag (pET30a), E. coli BL21 (DE3), Ni-Sepharose
T5 sequence (A0A4Y5R0K8 1-220): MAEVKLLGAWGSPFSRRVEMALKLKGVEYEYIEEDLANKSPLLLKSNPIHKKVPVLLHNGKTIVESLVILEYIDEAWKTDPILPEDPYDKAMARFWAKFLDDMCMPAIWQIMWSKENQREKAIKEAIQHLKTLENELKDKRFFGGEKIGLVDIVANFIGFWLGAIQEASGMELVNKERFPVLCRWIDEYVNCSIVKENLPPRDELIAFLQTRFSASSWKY
The text has this:
spectrophotometric GSH-CDNB conjugation, nonlinear regression on SbGSTU3

In a further assay the target is T6, SbGSTU7 (Salix babylonica, UniProt A0A4Y5R087).
T6 construct: gene GSTU7; full length, 6xHis-tag (pET30a), E. coli BL21 (DE3), Ni-Sepharose
The text has this: spectrophotometric GSH-CDNB conjugation, nonlinear regression on SbGSTU7

T2 sequence (A0A4Y5QZX3 1-220): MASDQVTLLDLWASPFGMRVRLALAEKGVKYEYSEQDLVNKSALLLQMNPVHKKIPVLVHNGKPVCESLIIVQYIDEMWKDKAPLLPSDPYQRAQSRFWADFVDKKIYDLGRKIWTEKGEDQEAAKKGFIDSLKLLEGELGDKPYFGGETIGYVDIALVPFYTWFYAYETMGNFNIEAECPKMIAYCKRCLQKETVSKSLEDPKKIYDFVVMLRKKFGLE
T4 sequence (A0A4Y5R0C1 1-222): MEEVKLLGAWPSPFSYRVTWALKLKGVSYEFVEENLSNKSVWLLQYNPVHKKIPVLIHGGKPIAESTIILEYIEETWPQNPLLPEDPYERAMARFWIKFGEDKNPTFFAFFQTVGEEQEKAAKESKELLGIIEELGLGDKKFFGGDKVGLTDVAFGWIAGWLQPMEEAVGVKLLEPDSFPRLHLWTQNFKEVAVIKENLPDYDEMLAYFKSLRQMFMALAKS
T3 sequence (A0A4Y5R2M7 1-219): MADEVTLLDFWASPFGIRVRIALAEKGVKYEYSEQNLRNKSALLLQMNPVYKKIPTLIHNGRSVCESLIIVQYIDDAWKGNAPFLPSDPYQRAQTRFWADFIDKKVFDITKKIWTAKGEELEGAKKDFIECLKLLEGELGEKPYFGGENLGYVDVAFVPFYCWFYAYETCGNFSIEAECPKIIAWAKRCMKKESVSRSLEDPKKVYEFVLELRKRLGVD
T6 sequence (A0A4Y5R087 1-219): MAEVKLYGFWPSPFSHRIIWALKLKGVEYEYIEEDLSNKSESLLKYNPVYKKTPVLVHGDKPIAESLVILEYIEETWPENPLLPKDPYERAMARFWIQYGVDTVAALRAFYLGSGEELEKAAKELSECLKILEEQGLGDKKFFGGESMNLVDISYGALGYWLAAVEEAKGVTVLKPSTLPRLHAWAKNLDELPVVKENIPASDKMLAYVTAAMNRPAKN

Turning to `O=[N+]([O-])c1ccc(Cl)c([N+](=O)[O-])c1` [CDNB, 1-chloro-2,4-dinitrobenzene], the Km on SbGSTU13 is 1.27 ± 0.062 mM; at SbGSTU10, 156 ± 2 µM; at SbGSTU1 it was 201 ± 4 µM; on SbGSTU12 it was 2.14 ± 0.272 mM; at SbGSTU3 it was 1 ± 0.033 mM; at SbGSTU7, 2.07 ± 0.165 mM.
